According to patent publication US10294202B2, “Pyrrolidinones as herbicides” (FMC Corporation, priority 2013, dated 2019):

What was measured:
barnyardgrass [1] = assay: Test A pre-/postemergence herbicide test; assay type: in vivo, Echinochloa crus-galli
Summary of the method: (§1)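 Both application timings used compounds in a non-phytotoxic solvent plus surfactant. Pre-emergence: soil sprayed directly after seeding into loam/sand. Post-emergence: foliage of 2–10 cm seedlings (1–2 leaves) sprayed. Injury rated ~10 days later, 0–100.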

kochia = assay: Test A pre-/postemergence herbicide test; assay type: in vivo, Kochia scoparia; conditions: for Plant response rating, Kochia: 0 to 100 scale
Summary of the method: as §1

ragweed = assay: Test A pre-/postemergence herbicide test; assay type: in vivo, Ambrosia elatior; conditions: for Plant response rating, Ragweed: 0 to 100 scale
Summary of the method: as §1

ryegrass, Italian = assay: Test A pre-/postemergence herbicide test; assay type: in vivo, Lolium multiflorum; conditions: for Plant response rating, Ryegrass, Italian: 0 to 100 scale
Summary of the method: as §1

giant foxtail = assay: Test A pre-/postemergence herbicide test; assay type: in vivo, Setaria faberii; conditions: for Plant response rating, Foxtail, Giant: 0 to 100 scale
Summary of the method: as §1

pigweed = assay: Test A pre-/postemergence herbicide test; assay type: in vivo, Amaranthus retroflexus; conditions: for Plant response rating, Pigweed: 0 to 100 scale
Summary of the method: as §1

wheat = assay: Test A pre-/postemergence herbicide test; assay type: in vivo, Triticum aestivum; conditions: Postemergence; for Plant response rating, Wheat: 125 g ai/ha, 0 to 100 scale; for Wheat plant response rating (0 to 100 scale, 0 is no effect, 100 is complete control): 500 g ai/ha
Summary of the method: as §1

corn = assay: Test A pre-/postemergence herbicide test; assay type: in vivo, Zea mays; conditions: Postemergence; for Plant response rating, Corn: 125 g ai/ha, 0 to 100 scale; for Corn plant response rating (0 to 100 scale, 0 is no effect, 100 is complete control): 500 g ai/ha
Summary of the method: as §1

blackgrass = assay: Test A postemergence herbicide test; assay type: in vivo, Alopecurus myosuroides; conditions: for Plant response rating, Blackgrass: 125 g ai/ha, 0 to 100 scale; for Blackgrass plant response rating (0 to 100 scale, 0 is no effect, 100 is complete control): 500 g ai/ha
Summary of the method: (§2)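 Blackgrass and galium grown in pots of loam soil–sand blend, treated postemergence at 2–10 cm height, one- to two-leaf stage. Plants kept in greenhouse ~10 days, then visually rated for injury against untreated controls on a 0–100 scale (0 no effect, 100 complete control).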

galium = assay: Test A postemergence herbicide test; assay type: in vivo, Galium aparine; conditions: for Plant response rating, Galium: 125 g ai/ha, 0 to 100 scale; for Galium plant response rating (0 to 100 scale, 0 is no effect, 100 is complete control): 500 g ai/ha
Summary of the method: as §2

rice = assay: Test B flooded paddy test; assay type: in vivo, Oryza sativa; conditions: 500 g ai/ha, Flood; scale of 0 to 100 where 0 is no effect and 100 is complete control
Summary of the method: (§3)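 Paddy-water application at a 3 cm flood, young plants having two leaves. Water level maintained; greenhouse, 13–15 days; visual 0–100 control rating.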

sedge, umbrella = assay: Test B flooded paddy test; assay type: in vivo, Cyperus difformis; conditions: 500 g ai/ha, Flood; scale of 0 to 100 where 0 is no effect and 100 is complete control
Summary of the method: as §3

ducksalad = assay: Test B flooded paddy test; assay type: in vivo, Heteranthera limosa; conditions: 500 g ai/ha, Flood; scale of 0 to 100 where 0 is no effect and 100 is complete control
Summary of the method: as §3

barnyardgrass [2] = assay: Test B flooded paddy test; assay type: in vivo, Echinochloa crus-galli; conditions: 500 g ai/ha, Flood; scale of 0 to 100 where 0 is no effect and 100 is complete control
Summary of the method: as §3

[3] = 125 g ai/ha, visual rating, 0 to 100 scale, 0 no effect, 100 complete control, approximately 10 days, preemergence
[4] = preemergence, 500 g ai/ha, 0 to 100 scale (0 no effect, 100 complete control)
[5] = 125 g ai/ha, visual rating, 0 no effect, 100 complete control, approximately 10 days, preemergence
[6] = Postemergence, 125 g ai/ha, 0 no effect, 100 complete control
[7] = 0 no effect, 100 complete control
[8] = Postemergence, 125 g ai/ha, 0 is no effect, 100 is complete control
[9] = preemergence, 500 g ai/ha, 0 is no effect and 100 is complete control
[10] = 0 is no effect, 100 is complete control

Cc1ccc(C2CNC(=O)C2C(=O)Nc2cccc(F)c2F)cc1 (racemic) [Compound 151]
Plant response rating, Barnyardgrass (barnyardgrass [1]; [3]): 90
Plant response rating, Barnyardgrass (barnyardgrass [1]; Postemergence, 125 g ai/ha, 0 to 100 scale, 0 no effect, 100 complete control): 80
Barnyardgrass plant response rating (0 to 100 scale, 0 is no effect, 100 is complete control) (barnyardgrass [1]; Postemergence, 500 g ai/ha): 90
Plant response rating, Barnyardgrass (barnyardgrass [1]; [4]): 90
Plant response rating, Kochia (kochia; [5]): 90
Plant response rating, Kochia (kochia; [6]): 70
Kochia plant response rating (0 to 100 scale, 0 is no effect, 100 is complete control) (kochia; Postemergence, 500 g ai/ha): 80
Plant response rating, Kochia (kochia; preemergence, 500 g ai/ha): 90
Plant response rating, Ragweed (ragweed; [5]): 90
Plant response rating, Ragweed (ragweed; [6]): 60
Ragweed plant response rating (0 to 100 scale, 0 is no effect, 100 is complete control) (ragweed; Postemergence, 500 g ai/ha): 70
Plant response rating, Ragweed (ragweed; preemergence, 500 g ai/ha): 90
Plant response rating, Ryegrass, Italian (ryegrass, Italian; [5]): 10
Plant response rating, Ryegrass, Italian (ryegrass, Italian; [6]): 30
Ryegrass, Italian plant response rating (0 to 100 scale, 0 is no effect, 100 is complete control) (ryegrass, Italian; Postemergence, 500 g ai/ha): 50
Plant response rating, Ryegrass, Italian (ryegrass, Italian; preemergence, 500 g ai/ha): 60
Plant response rating, Foxtail, Giant (giant foxtail; [5]): 80
Plant response rating, Foxtail, Giant (giant foxtail; [6]): 60
Foxtail, Giant plant response rating (0 to 100 scale, 0 is no effect, 100 is complete control) (giant foxtail; Postemergence, 500 g ai/ha): 70
Plant response rating, Foxtail, Giant (giant foxtail; preemergence, 500 g ai/ha): 90
Plant response rating, Pigweed (pigweed; [5]): 0
Plant response rating, Pigweed (pigweed; [6]): 50
Pigweed plant response rating (0 to 100 scale, 0 is no effect, 100 is complete control) (pigweed; Postemergence, 500 g ai/ha): 60
Plant response rating, Pigweed (pigweed; preemergence, 500 g ai/ha): 0
Plant response rating, Wheat (wheat; [7]): 0
Wheat plant response rating (0 to 100 scale, 0 is no effect, 100 is complete control) (wheat): 60
Plant response rating, Corn (corn; [7]): 0
Corn plant response rating (0 to 100 scale, 0 is no effect, 100 is complete control) (corn): 50
Plant response rating, Blackgrass (blackgrass; [7]): 40
Blackgrass plant response rating (0 to 100 scale, 0 is no effect, 100 is complete control) (blackgrass): 70
Plant response rating, Galium (galium; [7]): 60
Galium plant response rating (0 to 100 scale, 0 is no effect, 100 is complete control) (galium): 70
Plant response rating, Rice (rice): 0
Plant response rating, Sedge, Umbrella (sedge, umbrella): 0
Plant response rating, Ducksalad (ducksalad): 100
Plant response rating, Barnyardgrass (barnyardgrass [2]): 90

O=C1NCC(c2cccc(C(F)F)c2)C1C(=O)Nc1ccc(F)c(F)c1F (racemic) [Compound 165]
Plant response rating, Barnyardgrass (barnyardgrass [1]; [3]): 90
Plant response rating, Barnyardgrass (barnyardgrass [1]; Postemergence, 125 g ai/ha, 0 to 100 scale, 0 is no effect, 100 is complete control): 90
Barnyardgrass plant response rating (0 to 100 scale, 0 is no effect, 100 is complete control) (barnyardgrass [1]; Postemergence, 500 g ai/ha): 90
Plant response rating, Barnyardgrass (barnyardgrass [1]; [4]): 90
Plant response rating, Kochia (kochia; [5]): 70
Plant response rating, Kochia (kochia; [8]): 50
Kochia plant response rating (0 to 100 scale, 0 is no effect, 100 is complete control) (kochia; Postemergence, 500 g ai/ha): 70
Plant response rating, Kochia (kochia; [9]): 70
Plant response rating, Ragweed (ragweed; [5]): 0
Plant response rating, Ragweed (ragweed; [8]): 20
Ragweed plant response rating (0 to 100 scale, 0 is no effect, 100 is complete control) (ragweed; Postemergence, 500 g ai/ha): 50
Plant response rating, Ragweed (ragweed; [9]): 80
Plant response rating, Ryegrass, Italian (ryegrass, Italian; [5]): 0
Plant response rating, Ryegrass, Italian (ryegrass, Italian; [8]): 40
Ryegrass, Italian plant response rating (0 to 100 scale, 0 is no effect, 100 is complete control) (ryegrass, Italian; Postemergence, 500 g ai/ha): 50
Plant response rating, Ryegrass, Italian (ryegrass, Italian; [9]): 20
Plant response rating, Foxtail, Giant (giant foxtail; [5]): 90
Plant response rating, Foxtail, Giant (giant foxtail; [8]): 70
Foxtail, Giant plant response rating (0 to 100 scale, 0 is no effect, 100 is complete control) (giant foxtail; Postemergence, 500 g ai/ha): 90
Plant response rating, Foxtail, Giant (giant foxtail; preemergence, 500 g ai/ha): 90
Plant response rating, Pigweed (pigweed; [5]): 50
Plant response rating, Pigweed (pigweed; [8]): 30
Pigweed plant response rating (0 to 100 scale, 0 is no effect, 100 is complete control) (pigweed; Postemergence, 500 g ai/ha): 50
Plant response rating, Pigweed (pigweed; [9]): 70
Plant response rating, Wheat (wheat; [10]): 30
Wheat plant response rating (0 to 100 scale, 0 is no effect, 100 is complete control) (wheat): 70
Plant response rating, Corn (corn; [10]): 60
Corn plant response rating (0 to 100 scale, 0 is no effect, 100 is complete control) (corn): 80
Plant response rating, Blackgrass (blackgrass; [10]): 60
Blackgrass plant response rating (0 to 100 scale, 0 is no effect, 100 is complete control) (blackgrass): 70
Plant response rating, Galium (galium; [10]): 40
Galium plant response rating (0 to 100 scale, 0 is no effect, 100 is complete control) (galium): 50
Plant response rating, Rice (rice): 10
Plant response rating, Sedge, Umbrella (sedge, umbrella): 0
Plant response rating, Ducksalad (ducksalad): 100
Plant response rating, Barnyardgrass (barnyardgrass [2]): 75
